Test results from patent publication US11401555B2, “Genetic polymorphisms associated with stroke, methods of detection and uses thereof” (CELERA CORPORATION, priority 2008, dated 2022).

Assay: Stroke statin response (SSR) in the PROSPER pravastatin trial: pravastatin-treated versus placebo-treated, by SNP genotype
Format: in vivo, human
Excerpt: (hCV26505812) for association with SSR in CARE (Table 37) and PROSPER (Table 38), including both unadjusted and adjusted analyses (adjusted for factors such as age, gender, smoking status, hypertension, diabetes, BMI, and LDL and HDL levels). Table 37 provides results in CARE, and Table 38 provides results in PROSPER (whether each analysis is unadjusted or adjusted is indicated in the “adjust” column in Table 37, or by “unadj” and “adj” column labels in Tables 38). With respect to Tables 22-32 and 37-38, the columns labeled “Genotype” (in Tables 22-28 and 37), “Geno_Placebo” (in Tables 29-30 and 38), and “Geno_Resp” (in Tables 31-32 and 38) indicate the genotype which the given stroke risk or SSR results correspond to. […] In Tables 29-32 and 38, the columns labeled “LOWER_PLACEBO” and “UPPER_PLACEBO” (Tables 29-30 and 38), and “LOWER_RESP” and “UPPER_RESP” (Tables 31-32 and 38), refer to the lower and upper 95% confidence intervals for the hazard ratios. See Example Six below for further information relating to Tables 22-32 and 37-38. […] As used herein, the term “benefit” (with respect to a preventive or therapeutic drug treatment) is defined as achieving a reduced risk for a disease that the drug is intended to treat or prevent (e.g., stroke) by administrating the drug treatment, compared with the risk for the disease in the absence of receiving the drug treatment (or receiving a placebo in lieu of the drug treatment) for the same genotype. The term “benefit” may be used herein interchangeably with terms such as “respond positively” or “positively respond”. For stroke risk and statin response associations based on samples from the CARE and PROSPER trials described herein, stroke risk is assessed by comparing the risk of stroke for a given genotype with the risk of stroke for a reference genotype either in the placebo arm of the trial or in the whole study population of the trial, and statin response is assessed by comparing the risk of stroke in the pravastatin arm of the trial with the risk of stroke in the placebo arm of the trial for the same genotype. […] Example Five above describes the analysis of these 61 SNPs plus 17 additional SNPs in the German West Study. […] In PROSPER, SNPs were analyzed for association with stroke risk or SSR, in the whole study cohort (strata: “ALL”), or in the subgroup with a history of CVD (strata: “hist”) or without a CVD history (strata: “no hist”). […] Also in the CARE and PROSPER trials, the chromosome 9p21 SNP […] (hCV26505812) was analyzed further for association with SSR, including unadjusted and adjusted analysis. Adjusted analysis in CARE (Table 37) was adjusted for age, gender, smoking status, hypertension, diabetes, body mass index (BMI), and LDL and HDL levels, and adjusted analysis in PROSPER (Table 38) was adjusted for country, gender, age, LDL, HDL, smoking status (current vs. past or never), history of hypertension, and diabetes. Table 37 provides results in CARE, and Table 38 provides results in PROSPER (whether each analysis is unadjusted or adjusted is indicated in the “adjust” column in Table 37, or by “unadj” and “adj” column labels in Tables 38). All the p-values (including Pint values) provided in Tables 37-38 are two-sided p-values.

[1] = hCV2169762 rs1804689 HPS1, GENO_RESP GG, MODE GEN, STRATA no hist
[2] = hCV2169762 rs1804689 HPS1, GENO_RESP GT, MODE GEN, STRATA hist
[3] = hCV2169762 rs1804689 HPS1, GENO_RESP GT, MODE GEN, STRATA no hist
[4] = hCV2169762 rs1804689 HPS1, GENO_RESP TT, MODE GEN, STRATA no hist
[5] = hCV2442143 rs12544854 ASAH1, GENO_RESP CC + CT, MODE REC, STRATA no hist
[6] = hCV2442143 rs12544854 ASAH1, GENO_RESP TT + CT, MODE DOM, STRATA hist
[7] = hCV26505812 rs10757274 C9p21, GENO_RESP AA, MODE GEN, STRATA ALL
[8] = hCV26505812 rs10757274 C9p21, GENO_RESP AA, MODE GEN, STRATA no hist
[9] = hCV26505812 rs10757274 C9p21, GENO_RESP AG, MODE GEN, STRATA ALL
[10] = hCV26505812 rs10757274 C9p21, GENO_RESP AG, MODE GEN, STRATA no hist
[11] = hCV26505812 rs10757274 C9p21, GENO_RESP GG + AG, MODE DOM, STRATA ALL
[12] = hCV26505812 rs10757274 C9p21, GENO_RESP GG + AG, MODE DOM, STRATA no hist
[13] = hCV26505812 rs10757274 C9p21, GENO_RESP GG, MODE GEN, STRATA ALL
[14] = hCV26505812 rs10757274 C9p21, GENO_RESP GG, MODE GEN, STRATA no hist
[15] = hCV27511436 rs3750145 FZD1, GENO_RESP CC + CT, MODE DOM, STRATA no hist
[16] = hCV27511436 rs3750145 FZD1, GENO_RESP CC, MODE GEN, STRATA no hist
[17] = hCV27511436 rs3750145 FZD1, GENO_RESP CT, MODE GEN, STRATA no hist
[18] = hCV27511436 rs3750145 FZD1, GENO_RESP TT, MODE GEN, STRATA no hist
[19] = hCV27830265 rs12762303 ALOX5, GENO_RESP GG + AG, MODE DOM, STRATA no hist
[20] = hCV29539757 rs10110659 KCNQ3, GENO_RESP AA, MODE GEN, STRATA hist
[21] = hCV29539757 rs10110659 KCNQ3, GENO_RESP AC, MODE GEN, STRATA hist
[22] = hCV29539757 rs10110659 KCNQ3, GENO_RESP CC, MODE GEN, STRATA hist

With `CC[C@H](C)C(=O)O[C@H]1C[C@H](O)C=C2C=C[C@H](C)[C@H](CC[C@@H](O)C[C@@H](O)CC(=O)O)[C@H]21` [pravastatin] the “HR_RESP (hazard ratio, pravastatin-treated versus placebo-treated)” value (hCV2169762 rs1804689 HPS1, GENO_RESP GG, MODE GEN, STRATA hist) was 1.104, the EVENTS_RESP [1] was 30 and the “HR_RESP (hazard ratio, pravastatin-treated versus placebo-treated)” value [1] was 0.659. The EVENTS_RESP [2] was 47, the “HR_RESP (hazard ratio, pravastatin-treated versus placebo-treated)” value [2] was 0.9425 and the EVENTS_RESP [3] was 47. The “HR_RESP (hazard ratio, pravastatin-treated versus placebo-treated)” value [3] was 1.268, the EVENTS_RESP (hCV2169762 rs1804689 HPS1, GENO_RESP TT + GT, MODE DOM, STRATA no hist) was 57 and the “HR_RESP (hazard ratio, pravastatin-treated versus placebo-treated)” value (hCV2169762 rs1804689 HPS1, GENO_RESP TT, MODE GEN, STRATA hist) was 0.3365. For the same molecule, the EVENTS_RESP [4] was 10, the “HR_RESP (hazard ratio, pravastatin-treated versus placebo-treated)” value [4] was 1.275 and the EVENTS_RESP [5] was 72. The “HR_RESP (hazard ratio, pravastatin-treated versus placebo-treated)” value [5] was 1.087, the EVENTS_RESP [6] was 88 and the “HR_RESP (hazard ratio, pravastatin-treated versus placebo-treated)” value [6] was 1.043. The EVENTS_RESP [7] was 56, the “HR_RESP (hazard ratio, pravastatin-treated versus placebo-treated)” value [7] was 1.33 and the EVENTS_RESP [8] was 28. The “HR_RESP (hazard ratio, pravastatin-treated versus placebo-treated)” value [8] was 1.57, the EVENTS_RESP [9] was 94 and the “HR_RESP (hazard ratio, pravastatin-treated versus placebo-treated)” value [9] was 0.7769. For the same molecule, the EVENTS_RESP [10] was 35, the “HR_RESP (hazard ratio, pravastatin-treated versus placebo-treated)” value [10] was 0.6977 and the EVENTS_RESP [11] was 145. For the same molecule, the “HR_RESP (hazard ratio, pravastatin-treated versus placebo-treated)” value [11] was 0.8638, the EVENTS_RESP [12] was 59 and the “HR_RESP (hazard ratio, pravastatin-treated versus placebo-treated)” value [12] was 0.8132. For the same molecule, the EVENTS_RESP [13] was 51, the “HR_RESP (hazard ratio, pravastatin-treated versus placebo-treated)” value [13] was 1.082 and the EVENTS_RESP [14] was 24. For the same molecule, the “HR_RESP (hazard ratio, pravastatin-treated versus placebo-treated)” value [14] was 1.068, the EVENTS_RESP [15] was 27 and the “HR_RESP (hazard ratio, pravastatin-treated versus placebo-treated)” value [15] was 1.388. The EVENTS_RESP [16] was 1, the “HR_RESP (hazard ratio, pravastatin-treated versus placebo-treated)” value [16] was 0.3492 and the EVENTS_RESP [17] was 26. For the same molecule, the “HR_RESP (hazard ratio, pravastatin-treated versus placebo-treated)” value [17] was 1.575, the EVENTS_RESP [18] was 60 and the “HR_RESP (hazard ratio, pravastatin-treated versus placebo-treated)” value [18] was 0.8524. For the same molecule, the EVENTS_RESP [19] was 25, the “HR_RESP (hazard ratio, pravastatin-treated versus placebo-treated)” value [19] was 1.479 and the EVENTS_RESP [20] was 7. The “HR_RESP (hazard ratio, pravastatin-treated versus placebo-treated)” value [20] was 0.4115, the EVENTS_RESP [21] was 44 and the “HR_RESP (hazard ratio, pravastatin-treated versus placebo-treated)” value [21] was 0.9946. The EVENTS_RESP (hCV29539757 rs10110659 KCNQ3, GENO_RESP CC + AC, MODE REC, STRATA hist) was 106, the EVENTS_RESP [22] was 62 and the “HR_RESP (hazard ratio, pravastatin-treated versus placebo-treated)” value [22] was 1.016.
